According to publication PMC2951497 (Journal of medicinal chemistry, 2010):
pKi: −log10 of the molar value. Entries after “also recorded” stand apart in the source; their conditions may differ.

How the values were obtained:
[1] = target: 5-HT4 receptors (Homo sapiens, UniProt Q13639); assay: GloSensor L9 assay for cAMP response; type: cell-based; settings: agonist/inverse agonist assay; Ag. = agonist; Inv. Ag. = Inverse agonist
[2] = target: hGABAA; assay: NIMH-PDSP binding screen; set-up: species or system human; settings: read-out: Binding affinities (Ki) hGABAA
[3] = target: BZP (rat brain site); assay: NIMH-PDSP binding screen; settings: read-out: Binding affinities (Ki) BZP (rat brain site)
[4] = target: human recombinant 5-HT4 receptors (h5-HT4) (Homo sapiens, UniProt Q13639); assay: NIMH-PDSP binding to human recombinant 5-HT4 receptors, [3H]GR 113808; settings: for h5-HT4 Ki: h5-HT4 receptors expressed in HEK293T cells, averages of triplicate measurements
Chain of human recombinant 5-HT4 receptors (h5-HT4) (Q13639 whole entry): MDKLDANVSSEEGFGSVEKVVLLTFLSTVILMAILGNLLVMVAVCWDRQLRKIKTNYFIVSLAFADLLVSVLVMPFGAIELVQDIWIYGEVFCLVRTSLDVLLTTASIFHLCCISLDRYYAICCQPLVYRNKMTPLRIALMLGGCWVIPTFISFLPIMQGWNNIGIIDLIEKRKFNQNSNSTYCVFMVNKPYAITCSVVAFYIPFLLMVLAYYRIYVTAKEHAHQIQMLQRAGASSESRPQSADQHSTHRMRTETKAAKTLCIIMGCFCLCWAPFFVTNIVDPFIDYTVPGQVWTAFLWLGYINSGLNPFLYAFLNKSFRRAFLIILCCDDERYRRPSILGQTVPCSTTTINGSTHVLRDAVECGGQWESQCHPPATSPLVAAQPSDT

[5] = target: h5-HT1E (Homo sapiens, UniProt P28566); assay: NIMH-PDSP binding screen
Chain of h5-HT1E (P28566 whole entry): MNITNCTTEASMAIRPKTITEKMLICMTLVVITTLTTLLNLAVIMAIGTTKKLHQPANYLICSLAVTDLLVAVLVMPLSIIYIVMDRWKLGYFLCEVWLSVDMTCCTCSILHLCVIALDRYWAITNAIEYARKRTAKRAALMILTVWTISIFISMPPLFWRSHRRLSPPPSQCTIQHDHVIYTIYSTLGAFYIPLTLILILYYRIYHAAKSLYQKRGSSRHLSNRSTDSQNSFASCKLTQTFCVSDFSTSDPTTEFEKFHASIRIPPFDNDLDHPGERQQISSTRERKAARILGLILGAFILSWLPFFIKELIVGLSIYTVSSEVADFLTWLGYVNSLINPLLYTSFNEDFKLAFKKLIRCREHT

Chain of 5-HT4 receptors (Q13639 whole entry, the tested form may be a part): as the sequence (Q13639 whole entry) above

Row | Compound | Efficacy [1] | pKi [2] | pKi [3] | selectivity against the full range of tested receptors and binding sites ([4]; 5-HT4 receptor selectivity) | h5-HT4 Ki [4] | pKi [5]
1 | CCCCN1CCC(COC(=O)c2ccc(N)c3c2OCCO3)CC1 [Compound 4, reference compound] | antagonists (inactive) | – | – | – | – | –
2 | CCCCN1CCC(COC(=O)c2ccc(N)cc2OC)CC1 [Compound 12, (1-Butylpiperidin-4-yl)methyl 4-amino-2-methoxybenzoate] | potent full agonist | – | – | – | – | –
3 | CCCCN1CCC(COC(=O)c2cc(C)c(N)c3c2OCCO3)CC1 [Compound 7, (1-Butylpiperidin-4-yl)methyl 8-amino-7-methyl-2,3-dihydrobenzo[b][1,4]dioxine-5-carboxylate] | inactive | – | – | – | – | –
4 | CCCCN1CCC(COC(=O)c2cc(I)c(N)c3c2OCCO3)CC1 [Compound 1, (1-Butylpiperidin-4-yl)methyl 8-amino-7-iodo-2,3-dihydrobenzo[b][1,4]dioxine-5-carboxylate, reference compound] | inverse agonists | – | – | – | – | –
5 | CCCCN1CCC(COC(=O)c2ccc(N)c(OC)c2)CC1 [Compound 13, (1-Butylpiperidin-4-yl)methyl 4-amino-3-methoxybenzoate] | antagonists (inactive) | < 5.00 | < 5.00 | greater than 60 fold | low nanomolar; also recorded: affinity comparable to that of 1 | –
6 | CCCCN1CCC(COC(=O)c2cc(F)c(N)c3c2OCCO3)CC1 [Compound 17, (1-Butylpiperidin-4-yl)methyl 8-amino-7-fluoro-2,3-dihydrobenzo[b][1,4]dioxine-5-carboxylate] | inverse agonists | – | – | – | low nanomolar | –
7 | CCCCN1CCC(COC(=O)c2cc(Cl)c(NC)c3c2OCCO3)CC1 [Compound 8, (1-Butylpiperidin-4-yl)methyl 7-chloro-8-(methylamino)-2,3-dihydrobenzo[b][1,4]dioxine-5-carboxylate] | inverse agonists | < 5.00 | < 5.00 | – | low nanomolar; also recorded: binding affinity comparable to that of 1 | < 5.00
8 | CCCCN1CCC(COC(=O)c2cc(Br)c(NC)c3c2OCCO3)CC1 [Compound 9, (1-Butylpiperidin-4-yl)methyl 7-bromo-8-(methylamino)-2,3-dihydrobenzo[b][1,4]dioxine-5-carboxylate] | – | – | – | – | low nanomolar affinity | –
